biological target: T1, human GLP-1 receptor (Homo sapiens, UniProt P43220); assay: GLP-1R cAMP Assay (HitHunter cAMP accumulation); assay type: cell-based; settings: EC50, cAMP accumulation, CHO cells stably overexpressing human GLP-1 receptor, 30 min treatment
T1 construct: expressed in transfected cells
Protocol: cAMP accumulation was measured in Chinese hamster ovary (CHO) cells stably overexpressing the human GLP-1 receptor using the HitHunter cAMP Assay for Small Molecules Kit (Eurofins). Briefly, cells were grown in Ham's F12 Nutrient Mix with 10% FBS, and lifted with Cell Dissociation Buffer, Enzyme free, PBS based (ThermoFisher). Cells were pelleted, and resuspended in Hank's buffered saline solution with 10 mM HEPES, and 625 μM 3-isobutyl-1-methylxanthine. The anti-cAMP antibody reagent was then added to cells at a 1:2 ratio and 5 μL of mixture was seeded in 384-well small volume white assay plates, at 10,000 cells/well. Cells were then treated with 50 nL compound using an ECHO 550 acoustic dispenser (Labcyte) in a 20-point dose response format in triplicate for 30 min. Cells were then lysed, and detection reagents added according to the manufacturer's protocol. After overnight incubation, luminescence was measured using a Perkin Elmer Envision plate reader. Dose response curves were analyzed using GraphPad Prism 9.0. […]

T1 sequence (P43220 24-463): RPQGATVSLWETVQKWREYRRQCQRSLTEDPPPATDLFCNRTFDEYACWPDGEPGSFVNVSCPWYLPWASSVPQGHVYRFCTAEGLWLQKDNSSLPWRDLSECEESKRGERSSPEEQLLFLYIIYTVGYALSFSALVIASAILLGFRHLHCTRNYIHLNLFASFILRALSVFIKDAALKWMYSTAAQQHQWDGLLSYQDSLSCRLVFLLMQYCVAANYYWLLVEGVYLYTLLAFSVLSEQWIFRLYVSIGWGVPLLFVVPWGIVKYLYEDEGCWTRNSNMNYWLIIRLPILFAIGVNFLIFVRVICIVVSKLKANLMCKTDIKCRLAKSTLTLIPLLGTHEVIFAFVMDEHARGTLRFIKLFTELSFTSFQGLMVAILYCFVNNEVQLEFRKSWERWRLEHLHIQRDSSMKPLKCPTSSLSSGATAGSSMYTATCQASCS

| Compound | EC50 [nM] |
| --- | --- |
| O=C(O)c1cc(F)c2nc(CN3CC[C@H](Oc4ccnc(COc5ccc(Cl)cc5F)n4)C3)n(CC3CCO3)c2c1 (stereo partly drawn) [Compound 361, 2-{[(3S)-3-({2-[(4-chloro-2-fluorophenoxy)methyl]pyrimidin-4-yl}oxy)pyrrolidin-1-yl]methyl}-4-fluoro-1-[(oxetan-2-yl)methyl]-1H-1,3-benzodiazole-6-carboxylic acid] | < 50 |

same assay, conditions: cAMP accumulation, CHO cells stably overexpressing human GLP-1 receptor, 30 min treatment; read-out: EC50

| EC50 [nM] | Compound |
| --- | --- |
| < 50 | CCn1cncc1Cn1c(CN2CC(Oc3ccnc(COc4ccc(Cl)cc4Cl)c3)C2)nc2ccc(C(=O)O)cc21 [Compound 218, 2-{[3-({2-[(2,4-dichlorophenoxy)methyl]pyridin-4-yl}oxy)azetidin-1-yl]methyl}-1-[(1-ethyl-1H-imidazol-5-yl)methyl]-1H-1,3-benzodiazole-6-carboxylic acid] |
| < 50 | CCn1cncc1Cn1c(CN2CC(=Cc3cnc(COc4ccc(Cl)cc4C#N)o3)C2)nc2ccc(C(=O)O)cc21 [Compound 225, 2-{[3-({2-[(4-chloro-2-cyanophenoxy)methyl]-1,3-oxazol-5-yl}methylidene)azetidin-1-yl]methyl}-1-[(1-ethyl-1H-imidazol-5-yl)methyl]-1H-1,3-benzodiazole-6-carboxylic acid] |
| < 50 | CCn1cncc1Cn1c(CN2CC(=Cc3ccnc(COc4ccc(Cl)cc4C#N)c3)C2)nc2ccc(C(=O)O)cc21 [Compound 226, 2-{[3-({2-[(4-chloro-2-cyanophenoxy)methyl]pyridin-4-yl}methylidene)azetidin-1-yl]methyl}-1-[(1-ethyl-1H-imidazol-5-yl)methyl]-1H-1,3-benzodiazole-6-carboxylic acid] |
| < 50 | O=C(O)c1ccc2nc(CN3CC(Oc4cccc(COc5ccc(Cl)cc5Cl)c4)C3)n(Cc3ncco3)c2c1 [Compound 228, 2-[(3-{3-[(2,4-dichlorophenoxy)methyl]phenoxy}azetidin-1-yl)methyl]-1-[(1,3-oxazol-2-yl)methyl]-1H-1,3-benzodiazole-6-carboxylic acid] |
| < 50 | N#Cc1cc(Cl)ccc1OCc1cccc(OC2CN(Cc3nc4ccc(C(=O)O)cc4n3Cc3ncco3)C2)c1 [Compound 229, 2-[(3-{3-[(4-chloro-2-cyanophenoxy)methyl]phenoxy}azetidin-1-yl)methyl]-1-[(1,3-oxazol-2-yl)methyl]-1H-1,3-benzodiazole-6-carboxylic acid] |
| < 50 | CCn1cncc1Cn1c(CN2C[C@@H](Oc3cccc(COc4ccc(Cl)cc4Cl)c3)[C@@H]2C)nc2ccc(C(=O)O)cc21 [Compound 234, 2-{[(2S,3R)-3-{3-[(2,4-dichlorophenoxy)methyl]phenoxy}-2-methylazetidin-1-yl]methyl}-1-[(1-ethyl-1H-imidazol-5-yl)methyl]-1H-1,3-benzodiazole-6-carboxylic acid] |
| 50 to 500 | CCn1cncc1Cn1c(CN2CC3(CC(Oc4cccc(COc5ccc(Cl)cc5Cl)c4)C3)C2)nc2ccc(C(=O)O)cc21 [Compound 235, 2-[(6-{3-[(2,4-dichlorophenoxy)methyl]phenoxy}-2-azaspiro[3.3]heptan-2-yl)methyl]-1-[(1-ethyl-1H-imidazol-5-yl)methyl]-1H-1,3-benzodiazole-6-carboxylic acid] |
| < 50 | O=C(O)c1ccc2nc(CN3CC(Oc4ccnc(COc5ccc(Cl)cc5Cl)c4)C3)n(Cc3ccno3)c2c1 [Compound 236, 2-{[3-({2-[(2,4-dichlorophenoxy)methyl]pyridin-4-yl}oxy)azetidin-1-yl]methyl}-1-[(1,2-oxazol-5-yl)methyl]-1H-1,3-benzodiazole-6-carboxylic acid] |
| < 50 | O=C(O)c1ccc2nc(CN3CC(Oc4cccc(COc5ccc(Cl)cc5Cl)c4)C3)n(Cc3ccno3)c2c1 [Compound 237, 2-[(3-{3-[(2,4-dichlorophenoxy)methyl]phenoxy}azetidin-1-yl)methyl]-1-[(1,2-oxazol-5-yl)methyl]-1H-1,3-benzodiazole-6-carboxylic acid] |
| < 50 | O=C(O)c1ccc2nc(CN3CC(Oc4cccc(COc5ccc(Cl)cc5Cl)c4)C3)n(Cc3cnco3)c2c1 [Compound 238, 2-[(3-{3-[(2,4-dichlorophenoxy)methyl]phenoxy}azetidin-1-yl)methyl]-1-[(1,3-oxazol-5-yl)methyl]-1H-1,3-benzodiazole-6-carboxylic acid] |
| < 50 | CCn1cncc1Cn1c(CN2CC[C@@H](Oc3ccnc(COc4ccc(Cl)cc4Cl)c3)C2)nc2ccc(C(=O)O)cc21 [Compound 245, 2-{[(3R)-3-({2-[(2,4-dichlorophenoxy)methyl]pyridin-4-yl}oxy)pyrrolidin-1-yl]methyl}-1-[(1-ethyl-1H-imidazol-5-yl)methyl]-1H-1,3-benzodiazole-6-carboxylic acid] |
| < 50 | CCn1cncc1Cn1c(CN2C[C@H](Oc3ccnc(COc4ccc(Cl)cc4Cl)c3)[C@@H]2C)nc2ccc(C(=O)O)cc21 [Compound 273, 2-{[(2S,3S)-3-({2-[(2,4-dichlorophenoxy)methyl]pyridin-4-yl}oxy)-2-methylazetidin-1-yl]methyl}-1-[(1-ethyl-1H-imidazol-5-yl)methyl]-1H-1,3-benzodiazole-6-carboxylic acid] |
| < 50 | CCn1cncc1Cn1c(CN2CCC(Cn3ccc(COc4ccc(Cl)cc4C#N)n3)CC2)nc2ccc(C(=O)O)cc21 [Compound 282, 2-{[4-({3-[(4-chloro-2-cyanophenoxy)methyl]-1H-pyrazol-1-yl}methyl)piperidin-1-yl]methyl}-1-[(1-ethyl-1H-imidazol-5-yl)methyl]-1H-1,3-benzodiazole-6-carboxylic acid] |
| < 50 | CCn1cncc1Cn1c(CN2C[C@@H](Oc3ccnc(COc4ccc(Cl)cc4Cl)c3)[C@@H]2C)nc2ccc(C(=O)O)cc21 [Compound 293, 2-{[(2S,3R)-3-({2-[(2,4-dichlorophenoxy)methyl]pyridin-4-yl}oxy)-2-methylazetidin-1-yl]methyl}-1-[(1-ethyl-1H-imidazol-5-yl)methyl]-1H-1,3-benzodiazole-6-carboxylic acid] |
| < 50 | O=C(O)c1ccc2nc(CN3CC[C@H](Oc4ccnc(COc5ccc(C(F)F)cc5F)c4)C3)n(C[C@@H]3CCO3)c2c1 [Compound 298, 2-{[(3S)-3-[(2-{[4-(difluoromethyl)-2-fluorophenoxy]methyl}pyridin-4-yl)oxy]pyrrolidin-1-yl]methyl}-1-{[(2S)-oxetan-2-yl]methyl}-1H-1,3-benzodiazole-6-carboxylic acid] |
| < 50 | N#Cc1ccc(OCc2cccc(O[C@H]3CCN(Cc4nc5ccc(C(=O)O)cc5n4C[C@@H]4CCO4)C3)c2)c(F)c1 [Compound 350, 2-{[(3S)-3-{3-[(4-cyano-2-fluorophenoxy)methyl]phenoxy}pyrrolidin-1-yl]methyl}-1-{[(2S)-oxetan-2-yl]methyl}-1H-1,3-benzodiazole-6-carboxylic acid] |
| < 50 | O=C(O)c1cc(F)c2nc(CN3CC[C@H](Oc4cccc(COc5ccc(Cl)cc5F)c4)C3)n(C[C@@H]3CCO3)c2c1 [Compound 351, 2-{[(3S)-3-{3-[(4-chloro-2-fluorophenoxy)methyl]phenoxy}pyrrolidin-1-yl]methyl}-4-fluoro-1-{[(2S)-oxetan-2-yl]methyl}-1H-1,3-benzodiazole-6-carboxylic acid] |
| < 50 | CCn1cncc1Cn1c(CN2CC=C(c3cccc(COc4ccc(Cl)cc4Cl)n3)C2)nc2ccc(C(=O)O)cc21 [Compound 385, 2-[(3-{6-[(2,4-dichlorophenoxy)methyl]pyridin-2-yl}-2,5-dihydro-1H-pyrrol-1-yl)methyl]-1-[(1-ethyl-1H-imidazol-5-yl)methyl]-1H-1,3-benzodiazole-6-carboxylic acid] |
| < 50 | O=C(O)c1ccc2nc(CN3CC=C(c4ccc(F)c(COc5ccc(Cl)cc5Cl)c4)C3)n(Cc3cnco3)c2c1 [Compound 387, 2-[(3-{3-[(2,4-dichlorophenoxy)methyl]-4-fluorophenyl}-2,5-dihydro-1H-pyrrol-1-yl)methyl]-1-[(1,3-oxazol-5-yl)methyl]-1H-1,3-benzodiazole-6-carboxylic acid] |
| < 50 | O=C(O)c1ccc2nc(CN3CC=C(c4ccc(F)c(COc5ccc(Cl)cc5Cl)c4)C3)n(C[C@@H]3CCO3)c2c1 [Compound 388, 2-[(3-{3-[(2,4-dichlorophenoxy)methyl]-4-fluorophenyl}-2,5-dihydro-1H-pyrrol-1-yl)methyl]-1-{[(2S)-oxetan-2-yl]methyl}-1H-1,3-benzodiazole-6-carboxylic acid] |
| < 50 | O=C(O)c1ccc2nc(CN3CCC(c4ccc(F)c(COc5ccc(Cl)cc5Cl)c4)C3)n(C[C@@H]3CCO3)c2c1 (stereo partly drawn) [Compound 389, 2-[(3-{3-[(2,4-dichlorophenoxy)methyl]-4-fluorophenyl}pyrrolidin-1-yl)methyl]-1-{[(2S)-oxetan-2-yl]methyl}-1H-1,3-benzodiazole-6-carboxylic acid] |
| < 50 | O=C(O)c1ccc2nc(CN3CCC(c4cc(COc5ccc(Cl)cc5Cl)ccn4)C3)n(C[C@@H]3CCO3)c2c1 (some centres unmarked) [Compound 391] |
| < 50 | O=C(O)c1ccc2nc(CN3CC=C(c4ccnc(COc5ccc(Cl)cc5Cl)c4)C3)n(Cc3ncco3)c2c1 [Compound 392] |
| 50 to 500 | O=C(O)c1ccc2nc(CN3CC=C(c4cc(COc5ccc(Cl)cc5F)ccn4)C3)n(C[C@@H]3CCO3)c2c1 [Compound 393] |
| 50 to 500 | O=C(O)c1ccc2nc(CN3CC=C(c4cc(COc5ccc(Cl)cc5F)ccn4)C3)n(Cc3ncco3)c2c1 [Compound 394, 2-[(3-{4-[(4-chloro-2-fluorophenoxy)methyl]pyridin-2-yl}-2,5-dihydro-1H-pyrrol-1-yl)methyl]-1-[(1,3-oxazol-2-yl)methyl]-1H-1,3-benzodiazole-6-carboxylic acid] |
